Measured values as given in patent publication US20120149691A1, “Pyrrolo [1,2-b] Pyridazine Derivatives as Janus Kinase Inhibitors” (BioCryst Pharmaceuticals, Inc., priority 2009, published 2012).

For CC1CCCCC1Nc1c(C(=O)O)cnn2cccc12 (stereo not shown) [Compound 18e, 4-(2-methylcyclohexylamino)pyrrolo[1,2-b]pyridazine-3-carboxylic acid], the melting point was 195.1 °C.
Work on C[C@H]1CCCC[C@H]1Nc1c(C(N)=O)cnn2cccc12 [Compound 18g, 4-((1R,2S)-2-methylcyclohexylamino)pyrrolo[1,2-b]pyridazine-3-carboxamide] yielded a melting point of 158.6 °C.
Molecule C[C@@H]1CCCC[C@@H]1Nc1c(C(N)=O)cnn2cccc12 [Compound 18i, 4-((1S,2R)-2-methylcyclohexylamino)pyrrolo[1,2-b]pyridazine-3-carboxamide] has a melting point of 154.7 °C.
With Cc1nc(C(CC(C)C)Nc2c(C#N)cnn3cccc23)sc1C (stereo not shown) [Compound 49b, 4-(1-(4,5-Dimethylthiazol-2-yl)-3-methylbutylamino)pyrrolo[1,2-b]pyridazine-3-carbonitrile] the melting point was 137.9 °C.
CC(C)(CNc1c(C#N)cnn2cccc12)N1CCOCC1 [Compound 49e, 4-(2-methyl-2-morpholinopropylamino)pyrrolo[1,2-b]pyridazine-3-carbonitrile] showed a melting point of 178.8 °C.
In the case of CN(C)C(CNc1c(C#N)cnn2cccc12)c1ccco1 (stereo not shown) [Compound 49h, 4-(2-(dimethylamino)-2-(furan-2-yl)ethylamino)pyrrolo[1,2-b]pyridazine-3-carbonitrile], the melting point is reported as 106.9 °C.
Work on N#Cc1cnn2cccc2c1NC1(c2ccc(Cl)cc2Cl)CC1 [Compound 49k, 4-(1-(2,4-dichlorophenyl)cyclopropylamino)pyrrolo[1,2-b]pyridazine-3-carbonitrile] yielded a melting point of 207.7 °C.
COc1ccccc1C(CNc1c(C#N)cnn2cccc12)N1CCOCC1 (stereo not shown) [Compound 50b, 4-(2-(2-methoxyphenyl)-2-morpholinoethylamino)pyrrolo[1,2-b]pyridazine-3-carbonitrile] gave a melting point of 156.9 °C.
In the case of NC(=O)c1cnn2cccc2c1NC1CCC(O)CC1 (stereo not shown) [Compound 51i, 4-(4-hydroxycyclohexylamino)pyrrolo[1,2-b]pyridazine-3-carboxamide], the melting point is reported as 192.2 °C.
With N#Cc1cnn2cccc2c1NCC1CCCO1 (stereo not shown) [Compound 51k, 4-((tetrahydrofuran-2-yl)methylamino)pyrrolo[1,2-b]pyridazine-3-carbonitrile] the melting point was 101.8 °C.
With NC(=O)c1cnn2cccc2c1NCC1CCCO1 (stereo not shown) [Compound 51m, 4-((tetrahydrofuran-2-yl)methylamino)pyrrolo[1,2-b]pyridazine-3-carboxamide] the melting point was 120 °C.
N#Cc1cnn2cccc2c1NC1CCCC1 [Compound 52b, 4-(cyclopentylamino)pyrrolo[1,2-b]pyridazine-3-carbonitrile] showed a melting point of 102.9 °C.
N#Cc1cnn2cccc2c1Nc1ccccc1 [Compound 52e, 4-(phenylamino)pyrrolo[1,2-b]pyridazine-3-carbonitrile] showed a melting point of 163.5 °C.
With NC(=O)c1cnn2cccc2c1Nc1ccccc1 [Compound 52f, 4-(phenylamino)pyrrolo[1,2-b]pyridazine-3-carboxamide] the melting point was 247.2 °C.
Molecule N#Cc1cnn2cccc2c1NC1CCCCCC1 [Compound 52h, 4-(cycloheptylamino)pyrrolo[1,2-b]pyridazine-3-carbonitrile] has a melting point of 108 °C.
NC(=O)c1cnn2cccc2c1NC1CCCCCC1 [Compound 52i, 4-(cycloheptylamino)pyrrolo[1,2-b]pyridazine-3-carboxamide] gave a melting point of 279.2 °C.
